The text below walks through data of US7951829B2, “Benzimidazole modulators of VR1” (Janssen Pharmaceutica NV, priority 2006, dated 2011).

The target in this assay is T1, hVR1 (Homo sapiens, UniProt Q8NER1).
T1 construct: expressed in transfected cells; host or cells: HEK293
As to the kind of experiment: Human VR1 (hVR1) Functional Assay (FLIPR intracellular calcium, capsaicin challenge). It is filed as cell-based. The settings on record: capsaicin 0.030 μM, HEK293 cells expressing hVR1; for inhibition at 1 µM: test concentration 1 μM. For orientation: Calcium assays in cells follow changes in intracellular calcium, usually with a dye or a luminescent sensor.

T1 sequence (Q8NER1 whole entry): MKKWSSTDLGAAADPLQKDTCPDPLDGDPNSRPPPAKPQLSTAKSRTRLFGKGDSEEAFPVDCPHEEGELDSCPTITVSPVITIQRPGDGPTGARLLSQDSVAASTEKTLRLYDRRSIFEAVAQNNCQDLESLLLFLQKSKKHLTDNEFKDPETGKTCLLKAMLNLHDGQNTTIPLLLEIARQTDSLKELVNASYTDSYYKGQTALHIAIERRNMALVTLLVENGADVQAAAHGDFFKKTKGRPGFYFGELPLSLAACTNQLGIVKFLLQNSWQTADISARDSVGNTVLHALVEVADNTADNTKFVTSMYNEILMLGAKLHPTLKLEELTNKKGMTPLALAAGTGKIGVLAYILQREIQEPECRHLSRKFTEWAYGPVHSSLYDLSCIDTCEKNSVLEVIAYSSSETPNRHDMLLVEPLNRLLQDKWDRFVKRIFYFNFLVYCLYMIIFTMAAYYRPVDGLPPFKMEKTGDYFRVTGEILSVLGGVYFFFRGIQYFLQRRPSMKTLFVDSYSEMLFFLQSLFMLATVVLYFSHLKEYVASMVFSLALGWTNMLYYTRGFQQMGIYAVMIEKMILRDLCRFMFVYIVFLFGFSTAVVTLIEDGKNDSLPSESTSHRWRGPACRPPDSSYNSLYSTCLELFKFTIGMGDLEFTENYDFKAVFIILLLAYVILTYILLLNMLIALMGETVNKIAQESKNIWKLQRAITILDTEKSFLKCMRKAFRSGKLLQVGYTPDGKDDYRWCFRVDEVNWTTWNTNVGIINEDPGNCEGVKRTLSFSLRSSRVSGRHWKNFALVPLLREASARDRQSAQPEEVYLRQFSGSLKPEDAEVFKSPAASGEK

Turning to `NS(=O)(=O)c1ccccc1-c1ccc2[nH]c(CCc3ccccc3F)nc2c1` [Cpd 419, 2-{2-[2-(2-fluoro-phenyl)-ethyl]-1H-benzimidazol-5-yl}-benzenesulfonamide], the IC50 is 32 nM and the inhibition at 1 µM is 93%.

Consider `NS(=O)(=O)c1ccccc1-c1ccc2[nH]c(CCc3ccc(F)cc3)nc2c1` [Cpd 420, 2-{2-[2-(4-fluoro-phenyl)-ethyl]-1H-benzimidazol-5-yl}-benzenesulfonamide], for which the IC50 stood at 15 nM and the inhibition at 1 µM was 93%.

`NS(=O)(=O)c1ccccc1-c1ccc2[nH]c(CCc3cc(F)cc(C(F)(F)F)c3)nc2c1` [Cpd 421, 2-{2-[2-(3-fluoro-5-trifluoromethyl-phenyl)-ethyl]-1H-benzimidazol-5-yl}-benzenesulfonamide]: the IC50 turned out to be 10 nM and the inhibition at 1 µM amounted to 95%. The corresponding values for `CS(=O)(=O)c1ccccc1-c1ccc2[nH]c(/C=C/c3ccc(C(F)(F)F)cc3)nc2c1` [Cpd 422, (E)-5-(2-methanesulfonyl-phenyl)-2-[2-(4-trifluoromethyl-phenyl)-vinyl]-1H-benzimidazole] are 7 nM and 98%. Take `NS(=O)(=O)c1ccccc1-c1ccc2[nH]c(/C=C/c3ccc(C(F)(F)F)c(F)c3)nc2c1` [Cpd 423, (E)-2-{2-[2-(3-fluoro-4-trifluoromethyl-phenyl)-vinyl]-1H-benzimidazol-5-yl}-benzenesulfonamide]: the IC50 came out at 11 nM and the inhibition at 1 µM amounted to 99%.

Take `NS(=O)(=O)c1ccccc1-c1ccc2[nH]c(/C=C/c3ccc(C(F)(F)F)cc3F)nc2c1` [Cpd 424, (E)-2-{2-[2-(2-fluoro-4-trifluoromethyl-phenyl)-vinyl]-1H-benzimidazol-5-yl}-benzenesulfonamide]: the IC50 came out at 11 nM and the inhibition at 1 µM is 99%. With `CCOc1cccc(/C=C/c2nc3cc(-c4ccccc4S(N)(=O)=O)ccc3[nH]2)c1` [Cpd 425, (E)-2-{2-[2-(3-ethoxy-phenyl)-vinyl]-1H-benzimidazol-5-yl}-benzenesulfonamide], the inhibition at 1 µM came out at 2%. As for `NS(=O)(=O)c1ccccc1-c1ccc2[nH]c(/C=C/c3ccccc3)nc2c1` [Cpd 426, (E)-2-(2-styryl-1H-benzimidazol-5-yl)-benzenesulfonamide], the IC50 amounted to 22 nM and the inhibition at 1 µM worked out at 99%. As for `NS(=O)(=O)c1ccccc1-c1ccc2[nH]c(/C=C/c3ccc(Cl)c(Cl)c3)nc2c1` [Cpd 427, (E)-2-{2-[2-(3,4-dichloro-phenyl)-vinyl]-1H-benzimidazol-5-yl}-benzenesulfonamide], the half-inhibitory concentration (IC50) was 13 nM and the inhibition at 1 µM was 98%. Regarding `NS(=O)(=O)c1ccccc1-c1ccc2[nH]c(/C=C/c3ccc(Cl)cc3F)nc2c1` [Cpd 428, (E)-2-{2-[2-(4-chloro-2-fluoro-phenyl)-vinyl]-1H-benzimidazol-5-yl}-benzenesulfonamide], the IC50 was 7 nM and the inhibition at 1 µM stood at 100%.

Consider `CC(C)c1ccc(/C=C/c2nc3cc(-c4ccccc4S(N)(=O)=O)ccc3[nH]2)cc1` [Cpd 429, (E)-2-{2-[2-(4-isopropyl-phenyl)-vinyl]-1H-benzimidazol-5-yl}-benzenesulfonamide], for which the IC50 amounted to 6 nM and the inhibition at 1 µM was 98%. The corresponding values for `Cc1ccc(/C=C/c2nc3cc(-c4ccccc4S(N)(=O)=O)ccc3[nH]2)cc1` [Cpd 430, (E)-2-[2-(2-p-tolyl-vinyl)-1H-benzimidazol-5-yl]-benzenesulfonamide] are 9 nM and 100%. In the case of `NS(=O)(=O)c1ccccc1-c1ccc2[nH]c(/C=C/c3cccc(Cl)c3F)nc2c1` [Cpd 431, (E)-2-{2-[2-(3-chloro-2-fluoro-phenyl)-vinyl]-1H-benzimidazol-5-yl}-benzenesulfonamide], the IC50 worked out at 35 nM and the inhibition at 1 µM was found to be 97%. For the molecule `NS(=O)(=O)c1ccccc1-c1ccc2[nH]c(/C=C/c3ccc(F)c(Cl)c3)nc2c1` [Cpd 432, (E)-2-{2-[2-(3-chloro-4-fluoro-phenyl)-vinyl]-1H-benzimidazol-5-yl}-benzenesulfonamide], the IC50 was found to be 15 nM and the inhibition at 1 µM came to 98%.

Turning to `NS(=O)(=O)c1ccccc1-c1ccc2[nH]c(/C=C/c3ccc4ccccc4c3)nc2c1` [Cpd 433, (E)-2-[2-(2-naphthalen-2-yl-vinyl)-1H-benzimidazol-5-yl]-benzenesulfonamide], the IC50 came to 10 nM and the inhibition at 1 µM amounted to 98%.

Regarding `NS(=O)(=O)c1ccccc1-c1ccc2[nH]c(/C=C/c3ccc(C(F)F)cc3)nc2c1` [Cpd 435, (E)-2-{2-[2-(4-difluoromethyl-phenyl)-vinyl]-1H-benzimidazol-5-yl}-benzenesulfonamide], the IC50 is 20 nM and the inhibition at 1 µM came out at 97%. The corresponding values for `NS(=O)(=O)c1ccccc1-c1ccc2[nH]c(/C=C/c3cc(F)cc(C(F)(F)F)c3)nc2c1` [Cpd 436, (E)-2-{2-[2-(3-fluoro-5-trifluoromethyl-phenyl)-vinyl]-1H-benzimidazol-5-yl}-benzenesulfonamide] are 10 nM and 96%. The corresponding values for `NS(=O)(=O)c1ccccc1-c1ccc2[nH]c(/C=C/c3ccc(Cl)cc3Cl)nc2c1` [Cpd 437, (E)-2-{2-[2-(2,4-dichloro-phenyl)-vinyl]-1H-benzimidazol-5-yl}-benzenesulfonamide] are 24 nM and 97%.

Consider `NS(=O)(=O)c1ccccc1-c1ccc2[nH]c(/C=C/c3c(F)cccc3Cl)nc2c1` [Cpd 438, (E)-2-{2-[2-(2-chloro-6-fluoro-phenyl)-vinyl]-1H-benzimidazol-5-yl}-benzenesulfonamide], for which the IC50 came to 71 nM and the inhibition at 1 µM amounted to 96%. Taken in the same sequence, the figures for `NS(=O)(=O)c1ccccc1-c1ccc2[nH]c(/C=C/c3ccc(F)c(Br)c3)nc2c1` [Cpd 439, (E)-2-{2-[2-(3-bromo-4-fluoro-phenyl)-vinyl]-1H-benzimidazol-5-yl}-benzenesulfonamide] were 23 nM and 97%. As to `CCOc1ccc(/C=C/c2nc3cc(-c4ccccc4S(N)(=O)=O)ccc3[nH]2)cc1` [Cpd 440, (E)-2-{2-[2-(4-ethoxy-phenyl)-vinyl]-1H-benzimidazol-5-yl}-benzenesulfonamide], the IC50 was determined as 40 nM and the inhibition at 1 µM was 98%. With `NS(=O)(=O)c1ccc(F)cc1-c1ccc2[nH]c(/C=C/c3ccc(C(F)(F)F)cc3)nc2c1` [Cpd 441, (E)-4-fluoro-2-{2-[2-(4-trifluoromethyl-phenyl)-vinyl]-1H-benzimidazol-5-yl}-benzenesulfonamide], the inhibition at 1 µM came out at 40%. Regarding `CC(C)c1ccc(CCc2nc3cc(-c4ccccc4S(N)(=O)=O)ccc3[nH]2)cc1` [Cpd 442, 2-{2-[2-(4-isopropyl-phenyl)-ethyl]-1H-benzimidazol-5-yl}-benzenesulfonamide], the 50% inhibitory concentration (IC50) worked out at 4 nM and the inhibition at 1 µM came to 96%. Regarding `NS(=O)(=O)c1ccc(C(F)(F)F)cc1-c1ccc2[nH]c(/C=C/c3ccc(C(F)(F)F)cc3)nc2c1` [Cpd 444, (E)-4-trifluoromethyl-2-{2-[2-(4-trifluoromethyl-phenyl)-vinyl]-1H-benzimidazol-5-yl}-benzenesulfonamide], the IC50 was found to be 28 nM and the inhibition at 1 µM is 98%.

The term IC50 denotes the point on the concentration scale where inhibition reaches its midpoint. Broadly, the inhibition is the share of the control response that was lost under treatment.
